{"source": "patent US8637528B2", "about": "“Use of PDE7 inhibitors for the treatment of movement disorders” (Omeros Corporation, priority 2007, dated 2014)", "key": {"Dopamine D5 receptor": {"target": "Dopamine D5 receptor (Homo sapiens (Human), UniProt P21918)", "sequence (P21918 whole entry)": "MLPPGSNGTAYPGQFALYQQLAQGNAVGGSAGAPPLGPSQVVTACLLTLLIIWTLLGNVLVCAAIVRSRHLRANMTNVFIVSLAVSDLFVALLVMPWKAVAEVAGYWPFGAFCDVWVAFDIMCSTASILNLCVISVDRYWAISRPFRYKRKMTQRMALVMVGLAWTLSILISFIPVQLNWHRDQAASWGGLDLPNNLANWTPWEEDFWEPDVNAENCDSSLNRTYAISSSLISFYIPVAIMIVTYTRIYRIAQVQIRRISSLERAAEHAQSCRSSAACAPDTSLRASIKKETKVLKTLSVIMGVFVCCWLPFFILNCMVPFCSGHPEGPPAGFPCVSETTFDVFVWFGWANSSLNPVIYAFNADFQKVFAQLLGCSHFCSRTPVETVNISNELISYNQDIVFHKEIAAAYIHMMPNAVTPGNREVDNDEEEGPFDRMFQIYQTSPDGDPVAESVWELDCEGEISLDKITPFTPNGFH", "assay": "Dopamine D5 radioligand binding assay", "conditions": "10.0 μM"}, "Adenosine A2A receptor": {"target": "Adenosine A2A receptor (Homo sapiens (Human), UniProt P29274)", "sequence (P29274 whole entry)": "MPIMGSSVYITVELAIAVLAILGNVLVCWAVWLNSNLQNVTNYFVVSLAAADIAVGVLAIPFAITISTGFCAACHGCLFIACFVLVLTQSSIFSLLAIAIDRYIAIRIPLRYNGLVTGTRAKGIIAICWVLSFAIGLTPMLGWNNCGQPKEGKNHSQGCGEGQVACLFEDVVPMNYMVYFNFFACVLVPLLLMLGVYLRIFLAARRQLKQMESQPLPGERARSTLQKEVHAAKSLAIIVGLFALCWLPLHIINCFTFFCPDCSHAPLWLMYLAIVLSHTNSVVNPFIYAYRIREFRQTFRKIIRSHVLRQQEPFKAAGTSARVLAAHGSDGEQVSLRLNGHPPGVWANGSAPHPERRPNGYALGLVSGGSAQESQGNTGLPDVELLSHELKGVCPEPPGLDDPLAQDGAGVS", "assay": "Adenosine A2A receptor radioligand binding assay", "experimental": "An Adenosine A2A receptor radioligand binding assay was carried out as described in Varani, K., et al., Br. J. Pharmacol. 117:1693-1701, 1996, with the following modifications. Human recombinant A2A receptor was expressed in HEK-293 cells. The ligand used in the assay was 0.05 μM [^3H]CGS-21680. The non-specific ligand was 50 μM NECA. The vehicle control was 1% DMSO. Compound OM69 was tested at 10 μM in incubation buffer (50 mM Tris-HCL, pH 7.4, 10 mM MgCl2, 1 mM EDTA, 2 U/mL Adenosine Deaminase). The reaction was incubated for 90 minutes at 25° C. Radioligand binding was quantitated. […]"}, "Dopamine D1 receptor": {"target": "Dopamine D1 receptor (Homo sapiens (Human), UniProt P21728)", "sequence (P21728 whole entry)": "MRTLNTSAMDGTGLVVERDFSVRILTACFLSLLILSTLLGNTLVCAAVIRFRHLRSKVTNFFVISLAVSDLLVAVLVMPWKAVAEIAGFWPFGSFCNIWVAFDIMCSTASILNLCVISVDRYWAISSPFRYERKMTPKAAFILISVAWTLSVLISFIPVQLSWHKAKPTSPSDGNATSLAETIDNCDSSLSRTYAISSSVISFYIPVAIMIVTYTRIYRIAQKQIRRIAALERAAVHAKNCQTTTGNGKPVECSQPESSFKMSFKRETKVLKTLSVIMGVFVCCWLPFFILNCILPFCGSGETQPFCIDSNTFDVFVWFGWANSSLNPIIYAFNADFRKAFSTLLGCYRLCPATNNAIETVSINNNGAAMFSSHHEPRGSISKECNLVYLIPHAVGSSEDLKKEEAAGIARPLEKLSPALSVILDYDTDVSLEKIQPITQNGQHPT", "assay": "Dopamine D1 radioligand binding assay", "conditions": "10.0 μM"}, "Dopamine D2L receptor": {"target": "Dopamine D2L receptor (Homo sapiens (Human), UniProt P14416)", "sequence (P14416 whole entry)": "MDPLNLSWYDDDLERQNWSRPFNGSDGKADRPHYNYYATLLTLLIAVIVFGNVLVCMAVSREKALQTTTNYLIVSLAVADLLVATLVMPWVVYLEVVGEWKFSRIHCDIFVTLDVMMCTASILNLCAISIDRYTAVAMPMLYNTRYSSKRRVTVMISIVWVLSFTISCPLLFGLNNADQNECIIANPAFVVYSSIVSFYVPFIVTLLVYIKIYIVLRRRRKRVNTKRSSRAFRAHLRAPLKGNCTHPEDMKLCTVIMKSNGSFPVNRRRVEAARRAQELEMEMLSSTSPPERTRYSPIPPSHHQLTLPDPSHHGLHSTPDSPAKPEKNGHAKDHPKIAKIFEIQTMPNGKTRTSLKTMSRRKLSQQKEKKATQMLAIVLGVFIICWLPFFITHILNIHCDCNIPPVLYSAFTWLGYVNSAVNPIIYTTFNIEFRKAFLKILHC", "assay": "Dopamine D2L radioligand binding assay", "conditions": "10.0 μM"}, "Dopamine D3 receptor": {"target": "Dopamine D3 receptor (Homo sapiens (Human), UniProt P35462)", "sequence (P35462 whole entry)": "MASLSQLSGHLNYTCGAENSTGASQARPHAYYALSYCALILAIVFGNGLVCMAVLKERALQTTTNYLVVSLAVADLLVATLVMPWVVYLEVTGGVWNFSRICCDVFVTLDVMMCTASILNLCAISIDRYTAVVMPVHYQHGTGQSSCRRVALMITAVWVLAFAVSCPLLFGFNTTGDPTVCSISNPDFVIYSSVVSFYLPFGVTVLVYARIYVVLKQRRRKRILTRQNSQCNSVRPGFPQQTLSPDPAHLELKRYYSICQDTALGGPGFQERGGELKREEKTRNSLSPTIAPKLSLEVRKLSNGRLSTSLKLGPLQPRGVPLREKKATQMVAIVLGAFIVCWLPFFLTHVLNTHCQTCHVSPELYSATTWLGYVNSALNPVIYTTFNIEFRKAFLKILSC", "assay": "Dopamine D3 radioligand binding assay", "conditions": "10.0 μM"}, "[1]": {"target": "Dopamine Transporter (DAT) (Homo sapiens (Human), UniProt Q01959)", "assay": "Dopamine Transporter (DAT) radioligand binding assay", "conditions": "10.0 μM"}, "gabapentin receptor": {"target": "gabapentin receptor (Rattus norvegicus, UniProt P54290)", "sequence (P54290 25-944 limits assumed)": "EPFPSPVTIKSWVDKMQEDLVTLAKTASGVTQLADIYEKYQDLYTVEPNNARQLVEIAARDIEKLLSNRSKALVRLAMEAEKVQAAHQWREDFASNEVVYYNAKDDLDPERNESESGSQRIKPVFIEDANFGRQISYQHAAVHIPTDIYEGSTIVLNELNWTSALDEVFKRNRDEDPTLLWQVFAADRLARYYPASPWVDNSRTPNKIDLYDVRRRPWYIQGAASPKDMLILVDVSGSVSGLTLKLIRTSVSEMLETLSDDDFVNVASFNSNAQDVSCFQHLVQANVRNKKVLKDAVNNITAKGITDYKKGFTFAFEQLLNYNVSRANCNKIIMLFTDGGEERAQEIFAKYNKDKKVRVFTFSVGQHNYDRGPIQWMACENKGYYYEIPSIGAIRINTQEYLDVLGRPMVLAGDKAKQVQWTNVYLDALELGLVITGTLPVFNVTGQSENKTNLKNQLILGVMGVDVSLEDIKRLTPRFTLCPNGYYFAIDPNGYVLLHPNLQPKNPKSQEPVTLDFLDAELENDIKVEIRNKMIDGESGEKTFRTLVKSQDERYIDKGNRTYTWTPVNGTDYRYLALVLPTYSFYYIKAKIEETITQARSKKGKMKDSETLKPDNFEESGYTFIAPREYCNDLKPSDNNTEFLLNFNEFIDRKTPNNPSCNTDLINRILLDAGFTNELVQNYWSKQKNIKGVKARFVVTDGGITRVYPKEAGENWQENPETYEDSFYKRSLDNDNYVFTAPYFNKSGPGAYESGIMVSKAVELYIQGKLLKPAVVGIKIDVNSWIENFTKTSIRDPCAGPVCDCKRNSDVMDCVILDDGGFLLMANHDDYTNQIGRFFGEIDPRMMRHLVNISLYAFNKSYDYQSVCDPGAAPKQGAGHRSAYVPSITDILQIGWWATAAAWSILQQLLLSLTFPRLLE", "sequence (P54290 945-1091 limits assumed)": "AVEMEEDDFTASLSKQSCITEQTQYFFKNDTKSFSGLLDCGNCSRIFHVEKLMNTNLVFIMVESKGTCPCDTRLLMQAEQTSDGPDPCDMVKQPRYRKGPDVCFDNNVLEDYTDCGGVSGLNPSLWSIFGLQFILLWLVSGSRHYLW", "assay": "Gabapentin radioligand binding assay", "conditions": "10.0 μM"}, "PDE7B": {"target": "PDE7B (Homo sapiens (Human), UniProt Q9NP56)", "sequence (Q9NP56 whole entry, species assumed)": "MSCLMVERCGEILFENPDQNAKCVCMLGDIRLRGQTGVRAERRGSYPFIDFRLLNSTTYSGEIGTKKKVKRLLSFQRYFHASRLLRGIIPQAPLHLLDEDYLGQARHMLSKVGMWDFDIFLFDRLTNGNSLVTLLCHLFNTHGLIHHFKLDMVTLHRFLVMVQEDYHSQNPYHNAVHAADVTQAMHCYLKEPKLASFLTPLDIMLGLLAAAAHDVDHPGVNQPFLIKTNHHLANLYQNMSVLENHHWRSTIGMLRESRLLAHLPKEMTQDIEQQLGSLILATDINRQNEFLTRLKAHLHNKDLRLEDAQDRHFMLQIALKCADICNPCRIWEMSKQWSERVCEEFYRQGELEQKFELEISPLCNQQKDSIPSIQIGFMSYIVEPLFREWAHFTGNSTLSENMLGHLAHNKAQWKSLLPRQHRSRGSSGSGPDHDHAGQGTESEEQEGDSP", "assay": "initial PDE7B inhibition assay, different assay methodology", "type": "biochemical", "conditions": "reliability questioned"}, "PDE7A": {"target": "PDE7A (Homo sapiens (Human), UniProt Q13946)", "sequence (Q13946 whole entry, species assumed)": "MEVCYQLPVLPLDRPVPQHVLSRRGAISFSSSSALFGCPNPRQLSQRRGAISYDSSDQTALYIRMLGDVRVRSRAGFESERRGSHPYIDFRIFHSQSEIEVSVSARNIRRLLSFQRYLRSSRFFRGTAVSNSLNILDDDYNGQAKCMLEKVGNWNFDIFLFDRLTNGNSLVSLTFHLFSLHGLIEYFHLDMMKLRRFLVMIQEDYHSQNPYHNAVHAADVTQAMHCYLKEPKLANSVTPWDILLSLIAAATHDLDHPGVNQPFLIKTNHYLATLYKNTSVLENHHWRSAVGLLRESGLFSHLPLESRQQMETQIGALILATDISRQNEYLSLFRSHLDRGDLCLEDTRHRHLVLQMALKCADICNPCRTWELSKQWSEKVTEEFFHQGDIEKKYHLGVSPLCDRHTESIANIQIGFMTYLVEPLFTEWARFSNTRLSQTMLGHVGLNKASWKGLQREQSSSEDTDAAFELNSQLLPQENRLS", "assay": "initial PDE7A inhibition assay, different assay methodology", "type": "biochemical", "conditions": "read-out: PDE7A IC50 in the initial assay work"}, "[2]": {"target": "Catechol-O-Methyltransferase (COMT) (Sus scrofa, UniProt D3K5L3)", "sequence (D3K5L3 1-270)": "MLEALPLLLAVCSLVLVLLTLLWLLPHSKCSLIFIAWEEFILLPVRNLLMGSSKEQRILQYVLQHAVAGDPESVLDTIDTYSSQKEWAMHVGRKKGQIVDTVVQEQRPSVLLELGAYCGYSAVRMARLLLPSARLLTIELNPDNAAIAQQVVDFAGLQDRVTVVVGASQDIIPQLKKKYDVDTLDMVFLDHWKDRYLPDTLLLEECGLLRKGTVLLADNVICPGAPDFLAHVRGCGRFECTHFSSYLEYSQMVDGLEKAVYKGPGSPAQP", "assay": "biochemical", "type": "biochemical, pig", "conditions": "10.0 μM"}}, "data": [{"smiles": "COc1cc(N)ccc1-c1cc2c(c(=O)[nH]1)C(C1CCCCC1)N=[N+]2C", "note": "(centres unmarked) [OM69]", "values": [{"measurement": "percent inhibition of ligand binding to Dopamine D5", "setting": "Dopamine D5 receptor", "result": 4.0, "unit": "%"}, {"measurement": "percent inhibition of ligand binding to Adenosine A2A Receptor", "setting": "Adenosine A2A receptor; 10.0 μM", "result": 41, "unit": "%"}, {"measurement": "percent occupation of A2A receptors", "setting": "Adenosine A2A receptor; brain level 8.5 to 17 nM (dose 0.1 mg/kg), using IC50 of 10 μM", "result": "about 0.17%"}, {"measurement": "percent inhibition of ligand binding to Dopamine D1", "setting": "Dopamine D1 receptor", "result": "−5.0", "unit": "%"}, {"measurement": "percent inhibition of ligand binding to Dopamine D2L", "setting": "Dopamine D2L receptor", "result": 4.0, "unit": "%"}, {"measurement": "percent inhibition of ligand binding to Dopamine D3", "setting": "Dopamine D3 receptor", "result": "−13.0", "unit": "%"}, {"measurement": "percent inhibition of ligand binding to Dopamine Transporter (DAT)", "setting": "[1]", "result": 18.0, "unit": "%"}, {"measurement": "percent inhibition of ligand binding, Gabapentin", "setting": "gabapentin receptor", "result": 15.0, "unit": "%"}, {"measurement": "IC50", "setting": "PDE7B", "result": 96.9, "unit": "nM"}, {"measurement": "IC50", "setting": "PDE7A", "result": 3.5, "unit": "nM"}, {"measurement": "percent inhibition of COMT enzymatic activity", "setting": "[2]", "result": 19.0, "unit": "%"}]}]}
